Values of other authors, collected in patent US7498130B2, “Method of reducing viral load” (Massachusetts General Hospital, priority 2003, dated 2009).

Key:
HIV = conditions: infected cells
[1] = in vivo

antithrombin III [ATIII]
lowering HIV viral loads (HIV): inactive | overall elimination half-life [1]: 18.6 h
